In US9938322B2, “β-hairpin peptidomimetics” (priority 2013, dated 2018):
Where a SMILES comes first, the peptide text is derived from it. [ ]: non-standard residue; d: D form. Cha = N[C@@H](CC1CCCCC1)C(=O)O; Chg = N[C@H](C(=O)O)C1CCCCC1; Tle = CC(C)(C)[C@H](N)C(=O)O; dDab = NCC[C@@H](N)C(=O)O; Orn = NCCC[C@H](N)C(=O)O; Dab = NCC[C@H](N)C(=O)O; Nva = CCC[C@H](N)C(=O)O; Dap = NC[C@H](N)C(=O)O

Tested on: human red blood cells (hRBC)
Experiment: Hemolysis of human red blood cells
Format: cell-based
Details: red cells of human, 1 h, 100
Experimental: Lyophilized peptides were weighed on a Microbalance (Mettler MT5) and dissolved in sterile water to a final concentration of 1 mg/ml. Stock solutions were kept at +4° C., light protected.
The peptides were tested for their hemolytic activity against human red blood cells (hRBC). Fresh hRBC were washed three times with phosphate buffered saline (PBS) and centrifuged for 10 min at 2000×g. Compounds (100 μg/ml) were incubated with 20% hRBC (v/v) for 1 h at 37° C. and shaking at 300 rpm. The final erythrocyte concentration was approximately 0.9×10^9 cells/ml. A value of 0% and 100% cell lyses, respectively, was determined by incubation of hRBC in the presence of PBS containing 0.001% acetic acid and 2.5% Triton X-100 in H2O, respectively. The samples were centrifuged, the supernatants were 8-fold diluted in PBS buffer and the optical densities (OD) were measured at 540 nm. The 100% lyses value (OD540H2O) gave an OD540 of approximately 0.5-1.0.
Percent hemolysis was calculated as follows: (OD540peptide/OD540H2O)×100%.

SMILES | Hemolysis at 100 μg/ml [%]
CCC[C@@H]1NC(=O)[C@@H]2CCCN2C(=O)[C@H]2CCCN2C(=O)[C@H](CO)NC(=O)[C@H](C)NC(=O)[C@H](C(C)(C)C)NC(=O)[C@H](CCN)NC(=O)[C@H](Cc2c[nH]c3ccccc23)NC(=O)[C@H](CCN)NC(=O)[C@@H](CCN)NC(=O)[C@H](CCCN)NC(=O)[C@H](CCN)NC(=O)[C@H](Cc2ccc(O)cc2)NC(=O)[C@H](CO)NC1=O [compound 47] (cyclo([Nva]SY[Dab][Orn][dDab][Dab]W[Dab][Tle]AS[dP]P)) | 1
CC(C)C[C@@H]1NC(=O)[C@@H]2CCCN2C(=O)[C@H]2CCCN2C(=O)[C@H](CO)NC(=O)[C@H](CO)NC(=O)[C@H](C2CCCCC2)NC(=O)[C@H](CCN)NC(=O)[C@H](Cc2c[nH]c3ccccc23)NC(=O)[C@H](CCN)NC(=O)[C@@H](CCN)NC(=O)[C@H](CCCN)NC(=O)[C@H](CCN)NC(=O)[C@H](Cc2ccc(O)cc2)NC(=O)[C@H](CO)NC1=O [compound 116] (cyclo(LSY[Dab][Orn][dDab][Dab]W[Dab][Chg]SS[dP]P)) | 3
CC(C)C[C@@H]1NC(=O)[C@@H]2CCCN2C(=O)[C@H]2CCCN2C(=O)[C@H](CO)NC(=O)[C@H](CCN)NC(=O)[C@H](C(C)(C)C)NC(=O)[C@H](CCN)NC(=O)[C@H](Cc2c[nH]c3ccccc23)NC(=O)[C@H](CCN)NC(=O)[C@@H](CCN)NC(=O)[C@H](CCCN)NC(=O)[C@H](CCN)NC(=O)[C@H](Cc2ccc(O)cc2)NC(=O)CNC1=O [compound 157] (cyclo(LGY[Dab][Orn][dDab][Dab]W[Dab][Tle][Dab]S[dP]P)) | 1
CC(C)C[C@@H]1NC(=O)[C@@H]2CCCN2C(=O)[C@H]2CCCN2C(=O)[C@H](CO)NC(=O)[C@H](C)NC(=O)[C@H](C2CCCCC2)NC(=O)[C@H](CCN)NC(=O)[C@H](Cc2c[nH]c3ccccc23)NC(=O)[C@H](CCN)NC(=O)[C@@H](CCN)NC(=O)[C@H](CCCN)NC(=O)[C@H](CCN)NC(=O)[C@H](C(C)(C)C)NC(=O)[C@H](CO)NC1=O [compound 137] (cyclo(LS[Tle][Dab][Orn][dDab][Dab]W[Dab][Chg]AS[dP]P)) | 4
C[C@@H]1NC(=O)[C@H](C(C)(C)C)NC(=O)[C@H](CCN)NC(=O)[C@H](Cc2c[nH]c3ccccc23)NC(=O)[C@H](CCN)NC(=O)[C@@H](CCN)NC(=O)[C@H](CCCN)NC(=O)[C@H](CCN)NC(=O)[C@H](CC2CCCCC2)NC(=O)[C@H](CNC(=O)[C@@H](N)[C@@H](C)O)NC(=O)[C@H](Cc2c[nH]c3ccccc23)NC(=O)[C@@H]2CCCN2C(=O)[C@H]2CCCN2C(=O)[C@H](CO)NC1=O [compound 14] (cyclo(W[Dap](Thr)[Cha][Dab][Orn][dDab][Dab]W[Dab][Tle]AS[dP]P)) | 0
CC(C)C[C@@H]1NC(=O)[C@@H]2CCCN2C(=O)[C@H]2CCCN2C(=O)[C@H](CO)NC(=O)[C@H](C)NC(=O)[C@H](C2CCCCC2)NC(=O)[C@H](CCN)NC(=O)[C@H](Cc2c[nH]c3ccccc23)NC(=O)[C@H](CCN)NC(=O)[C@@H](CCN)NC(=O)[C@H](CCCN)NC(=O)[C@H](CCN)NC(=O)[C@H](Cc2ccc(O)cc2)NC(=O)[C@H](C)NC1=O [compound 129] (cyclo(LAY[Dab][Orn][dDab][Dab]W[Dab][Chg]AS[dP]P)) | 1
C[C@@H]1NC(=O)[C@H](C(C)(C)C)NC(=O)[C@H](CCN)NC(=O)[C@H](Cc2c[nH]c3ccccc23)NC(=O)[C@H](CCN)NC(=O)[C@@H](CCN)NC(=O)[C@H](CCCN)NC(=O)[C@H](CCN)NC(=O)[C@H](CC2CCCCC2)NC(=O)[C@H](CN)NC(=O)[C@H](Cc2c[nH]c3ccccc23)NC(=O)[C@@H]2CCCN2C(=O)[C@H]2CCCN2C(=O)[C@H](CO)NC1=O [Ex. 10] (cyclo(W[Dap][Cha][Dab][Orn][dDab][Dab]W[Dab][Tle]AS[dP]P)) | 3.5
